SMILES strings stand for the structures. Where only a bound is given, the exact number is not on record here.

A short description of data set [1]: AUC(0 to t) in Sprague-Dawley rat at 5 mg/kg, ig measured for 24 hrs by LC-MS/MS analysis. It counts as ADME, organism-based. The arrangement: time 24 hrs, dose 5 mg/kg. The following applies: in vivo, po.
Data set [2] can be described thus: AUC(0 to t) in Sprague-Dawley rat at 1 mg/kg, iv measured for 24 hrs by LC-MS/MS analysis. It counts as ADME, organism-based. The arrangement: time 24 hrs, dose 1 mg/kg. The following applies: in vivo.
Data set [3] is described as follows: Toxicity in Sprague-Dawley rat assessed as effect on inflammatory reaction at 150 mg/kg/day, ig administered for 28 days. The class given is organism-based. To be noted: in vivo, po, 672 h, time 28 day.
Data set [4] concerns the target T1, 5-hydroxytryptamine receptor 3A (Homo sapiens, UniProt P46098).
T1 sequence (P46098 whole entry): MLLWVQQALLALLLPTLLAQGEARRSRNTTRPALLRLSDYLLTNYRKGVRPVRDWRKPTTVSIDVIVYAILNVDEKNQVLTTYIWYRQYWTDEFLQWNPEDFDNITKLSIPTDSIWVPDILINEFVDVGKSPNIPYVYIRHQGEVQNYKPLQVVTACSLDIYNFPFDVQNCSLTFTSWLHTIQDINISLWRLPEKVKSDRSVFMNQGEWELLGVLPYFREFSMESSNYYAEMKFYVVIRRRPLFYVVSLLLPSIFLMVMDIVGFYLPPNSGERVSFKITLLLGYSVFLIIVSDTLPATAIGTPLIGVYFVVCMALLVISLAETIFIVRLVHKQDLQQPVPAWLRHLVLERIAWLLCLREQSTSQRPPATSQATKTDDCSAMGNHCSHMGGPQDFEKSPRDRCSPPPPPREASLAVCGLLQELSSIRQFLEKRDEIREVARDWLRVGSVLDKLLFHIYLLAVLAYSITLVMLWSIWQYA
Description: Binding affinity to human 5HT3 receptor.

The nature of data set [5]: Cmax in Sprague-Dawley rat at 5 mg/kg, ig measured for 24 hrs by LC-MS/MS analysis. The class given is ADME, organism-based. More on the design: route intragastric, time 24 hrs, dose 5 mg/kg. The following applies: in vivo, po.
A short description of data set [6]: Cmax in Sprague-Dawley rat at 1 mg/kg, iv measured for 24 hrs by LC-MS/MS analysis. The class given is ADME, organism-based. The arrangement: route intravenous, dose 1 mg/kg, time 24 hrs. The following applies: in vivo.
Data set [7] addresses 5-hydroxytryptamine receptor 1B (Homo sapiens, UniProt P28222). As to the kind of experiment: Binding affinity to human 5HT1B receptor.
A short description of data set [8]: Toxicity in Sprague-Dawley rat assessed as effect on food intake at 150 mg/kg/day, ig administered for 28 days. The following applies: in vivo, po, 672 h, time 28 day. It counts as organism-based.
A short description of data set [9]: Bioavailability in Sprague-Dawley rat at 5 mg/kg, ig measured for 24 hrs by LC-MS/MS analysis. The following applies: in vivo, po. The class given is ADME, organism-based.
A short description of data set [10]: Toxicity in NewZealand rabbit Saphenous vein rings assessed as induction of vasoconstriction at 0.01 to 100 uM. The class given is tissue-based, Oryctolagus cuniculus. The following applies: dose 0.01-100 µM.
The nature of data set [11]: Cmax in monkey at 25 mg/kg, ig administered for 28 days by LC-MS/MS analysis. It counts as ADME, organism-based, Macaca mulatta. More on the design: route intragastric, dose 25 mg/kg, time 28 day. The following applies: rhesus monkey, in vivo, po.
For a further data set, the species on record is Homo sapiens. Description: Selectivity ratio of IC50 for human 5HT2B receptor to IC50 for human 5HT1F receptor.
Data set [12] is described as follows: Clearance in Sprague-Dawley rat at 1 mg/kg, iv measured for 24 hrs by LC-MS/MS analysis. To be noted: in vivo. The class given is ADME, organism-based.
The target of data set [13] is T2, 5-hydroxytryptamine receptor 1F (Homo sapiens) (UniProt P30939).
T2 sequence (whole entry): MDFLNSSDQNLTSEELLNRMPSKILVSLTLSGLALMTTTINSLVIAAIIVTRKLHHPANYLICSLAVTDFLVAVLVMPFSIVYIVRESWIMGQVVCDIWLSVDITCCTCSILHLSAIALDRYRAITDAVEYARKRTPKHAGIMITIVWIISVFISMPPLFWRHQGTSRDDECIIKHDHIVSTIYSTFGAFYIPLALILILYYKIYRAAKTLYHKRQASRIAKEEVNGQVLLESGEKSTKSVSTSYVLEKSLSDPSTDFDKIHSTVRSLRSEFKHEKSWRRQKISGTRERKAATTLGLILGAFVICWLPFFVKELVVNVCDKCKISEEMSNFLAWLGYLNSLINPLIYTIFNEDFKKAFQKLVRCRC
As to the kind of experiment: Potency index, ratio of lasmiditan EC50 to test compound EC50 for agonist activity at 5HT1F receptor (unknown origin) expressed in HEK293 cells measured after 60 mins by Fluo-4AM dye based FLIPR assay. The class given is functional, cell-based.

A short description of data set [14]: Cmax in monkey at 1 mg/kg, ig administered for 28 days by LC-MS/MS analysis. More on the design: route intragastric, dose 1 mg/kg, time 28 day. To be noted: rhesus monkey, in vivo, po. It counts as ADME, organism-based, Macaca mulatta.
Data set [15] in a line: AUC (0 to 24hrs) in monkey at 1 mg/kg, ig by LC-MS/MS analysis. To be noted: rhesus monkey, in vivo, po. The arrangement: time < 24 hr, route intragastric, dose 1 mg/kg. It counts as ADME, organism-based, Macaca mulatta.

Chain of 5-hydroxytryptamine receptor 1B (P28222 whole entry): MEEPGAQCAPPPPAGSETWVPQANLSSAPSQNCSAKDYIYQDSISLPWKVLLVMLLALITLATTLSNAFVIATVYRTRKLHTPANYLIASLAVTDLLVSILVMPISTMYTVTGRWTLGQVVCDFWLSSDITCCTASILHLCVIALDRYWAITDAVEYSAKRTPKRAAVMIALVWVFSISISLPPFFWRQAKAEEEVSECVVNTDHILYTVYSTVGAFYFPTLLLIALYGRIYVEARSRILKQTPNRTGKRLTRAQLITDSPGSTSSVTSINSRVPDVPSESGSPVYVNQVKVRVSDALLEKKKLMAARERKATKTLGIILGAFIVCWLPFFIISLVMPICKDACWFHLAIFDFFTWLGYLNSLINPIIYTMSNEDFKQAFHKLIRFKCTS

Consider `CN1CCC(=C(F)c2cccc(NC(=O)c3c(F)cc(F)cc3F)n2)CC1`, for which the AUC(0-t) at 24 h in data set [1] was 404 ng·h/mL; in [2], 128 ng·h/mL; in data set [15], 3200 ng·h/mL. For the same compound, the Activity entry in data set [3], in data set [8] and in [10] was “Non-Toxic” throughout. Moreover, the IC50 in [4] was greater than 10000 nM; in [7], 2160 nM. The Cmax in data set [5] came to 88 ng/mL; in [6], 110 ng/mL; in data set [11] it was 3630 ng/mL; in data set [14], 764 ng/mL. In addition, in data set [9], the bioavailability amounted to 64%. For the same compound, in the data set filed under Homo sapiens, the Ratio IC50 was greater than 10000. In addition, in [12], the clearance is 127 mL/min/kg. In addition, the Ratio EC50 in data set [13] amounted to 4.

(Values after ChEMBL document CHEMBL4828744, “Design, synthesis and biological evaluation of pyridinylmethylenepiperidine derivatives as potent 5-HT1F receptor agonists for migraine therapy” (Eur J Med Chem, 2021).)
